The values below come from patent US12686678B2, “Crystal form of Lanifibranor, preparation method therefor, and use thereof” (INVENTIVA, priority 2020, dated 2026).

Each structure is given as a SMILES string.

Holding throughout (type): physicochemical
A short description of data set [1]: Appearance of powder on sulphuric acid paper. An excerpt: A certain amount of Form CSI was weighed and put on sulphuric acid paper to observe the appearance The appearance of Form CSI is shown in FIG. 15. […] A certain amount of Form CSII was weighed and put in sulphuric acid paper, and the powder state was observed. […] A certain amount of Form CSIV was weighed and put in sulphuric acid paper, and the powder state was observed.

A short description of data set [2]: Adhesiveness (material sticking to punch, ENERPAC manual tablet press). Conditions: about 30 mg, φ8 mm round tooling, 10 kN, held 30 s. The procedure:
ENERPAC manual tablet press was used for testing. Approximately 30 mg of Form CSI was weighed and then added into the dies of φ8 mm round tooling, compressed at 10 kN and held for 30 s. The punch was weighed and the amount of material sticking to the punch was calculated. The compression was repeated twice and the maximum amount and average amount of material sticking to the punch during the compression were recorded. […] ENERPAC manual tablet press was used for testing. Approximately 30 mg of Form CSII was weighed and then added into the dies of φ8 mm round tooling, compressed at 10 kN and held for 30 s. The punch was weighed and amount of material sticking to the punch was calculated. The compression was repeated twice and the maximum amount and average amount of material sticking to the punch during the compression were recorded. […] ENERPAC manual tablet press was used for testing. Approximately 30 mg of Form CSIV was weighed and then added into the dies of φ8 mm round tooling, compressed at 10 KN and held for 30 s. The punch was weighed and amount of material sticking to the punch was calculated. The compression was repeated twice and the maximum amount and average amount of material sticking to the punch during the compression were recorded.

Data set [3] in a line: Flowability (compressibility index from bulk and tapped density). As for the experimental part: Compressibility index is usually utilized to evaluate the flowability of powder or granules during the drug product process. Compressibility index test method is as follows: a certain amount of powder was added into a measuring cylinder and bulk volume was recorded. Then the powder was tapped to make it in the tightest state and the tapped volume was recorded. The bulk density (ρ0) and tapped density (ρf) were calculated and compressibility index was calculated according to c=(ρf−ρ0)/ρf.

The nature of data set [4]: Hygroscopicity by dynamic vapor sorption (DVS). Conditions: for Weight gain from 0 to 60% RH / Weight gain from 0 to 70% RH: DVS, 25° C.; for Crystalline state after DVS: XRPD before and after DVS test. As for the experimental part:
Dynamic Vapor Sorption (DVS) was measured via an SMS (Surface Measurement Systems Ltd.) intrinsic DVS instrument. The instrument control software is DVS-Intrinsic control software. Typical Parameters for DVS test are as follows: • Temperature: 25° C. • Gas and flow rate: N2, 200 mL/min • RH range: 0% RH to 95% RH Dynamic vapor sorption (DVS) analyzer was applied to evaluate the hygroscopicity of amorphous with a certain amount of sample. The weight gains at each relative humidity were recorded in a cycle of 0-95% RH-0. […] Dynamic vapor sorption (DVS) analyzer was applied to evaluate hygroscopicity of Form CSI with a certain amount of sample. The weight gains at each relative humidity were recorded in a cycle of 0-95% RH-0. Dynamic vapor sorption (DVS) analyzer was applied to evaluate hygroscopicity of Form CSII with a certain amount of sample. The weight gains at each relative humidity were recorded in a cycle of 50% RH-95% RH-0%-95% RH. Dynamic vapor sorption (DVS) analyzer was applied to evaluate hygroscopicity of Form CSIV and prior art amorphous with certain amounts of samples. The weight gains at each relative humidity were recorded in a cycle of 0-95% RH-0.

Data set [5] in a line: Particle size distribution (Mastersizer 3000, wet mode). Conditions: after 30 seconds of ultrasonication, Isopar G. The procedure:
The particle size distribution data in the present disclosure were acquired by an Mastersizer 3000 laser particle size analyzer of Malvern. The test was carried out in wet mode, using a Hydro MV dispersion device, and the dispersant was Isopar G. The parameters are shown in Table 3. A certain amount of Form CSI was added into a glass vial with about a certain volume of Isopar G (containing 0.2% lecithin). The mixture was mixed thoroughly and transferred into the Hydro MV dispersing device. The experiment was started when the obscuration was in appropriate range. The particle size distribution was tested after 30 seconds of ultrasonication.

Data set [6] can be described thus: Physical and chemical stability on storage (XRPD for crystalline form, HPLC for purity). As for the experimental part: A certain amount of Form CSI of the present disclosure was stored under different conditions of 25° C./60% RH, 40° C./75% RH, and 60° C./75% RH. Crystalline form and chemical purity were checked by XRPD and HPLC, respectively. Open packaged: Put the sample into a glass vial, cover the vial with aluminum toil, and punch 5-10 holes in the foil. Sealed packaged: Put the sample into a glass vial, cap the vial tightly, and seal the vial in an aluminum foil bag. A certain amount of Form CSII of the present disclosure was stored under different conditions of 25° C./60% RH, 40° C./75% RH, and 60° C./75% RH. Crystalline form and chemical purity were checked by XRPD and HPLC, respectively. A certain amount of Form CSIV of the present disclosure was stored under different conditions of 25° C./60% RH, 40° C./75% RH, and 60° C./75% RH. Crystalline form and chemical purity were checked by XRPD and HPLC, respectively.

A short description of data set [7]: Physical stability upon manual grinding (XRPD). Conditions: ground manually for 5 minutes in a mortar. As for the experimental part: Form CSII was grounded manually for 5 minutes in a mortar. […] Form CSIV was grounded manually for 5 minutes in a mortar.
Data set [8] is described as follows: Physical stability upon tableting under different pressures (XRPD). An excerpt: A certain amount of Form CSII was compressed into tablet under different pressures with suitable tableting die. Crystalline form before and after tableting were checked by XRPD. […] A certain amount of Form CSIV was compressed into tablet under different pressures with suitable tableting die. Crystalline form before and after tableting were checked by XRPD.

[9] abbreviates: 25° C./60% RH, open packaged, 6 months.
The mark [10] stands for this setting: 25° C./60% RH, sealed packaged, 6 months.
Where [11] appears, read: 40° C./75% RH, open packaged, 6 months.
[12] abbreviates: 40° C./75% RH, sealed packaged, 6 months.
Setting [13] is: 60° C./75% RH, open packaged, 3 months.
Where [14] appears, read: 60° C./75% RH, sealed packaged, 3 months.
The mark [15] stands for this setting: 25° C./60% RH, open packaged, 3 months.
The mark [16] stands for this setting: 25° C./60% RH, sealed packaged, 3 months.
[17] abbreviates: 40° C./75% RH, open packaged, 3 months.
[18] abbreviates: 40° C./75% RH, sealed packaged, 3 months.
Setting [19] is: 60° C./75% RH, open packaged, one month.
[20] abbreviates: 60° C./75% RH, sealed packaged, one month.

Take `O=C(O)CCCc1cc2cc(Cl)ccc2n1S(=O)(=O)c1ccc2ncsc2c1` [Form CSI, 5-Chloro-1-[(6-benzothiazolyl)sulfonyl]-1H-indole-2-butanoic acid]: the Appearance of powder result in data set [1] was “powdery with uniformly dispersed and has no adhesion phenomenon”. Also, in data set [2], the Average adhesion amount was 0.45 mg. Further, the Bulk density in data set [3] was determined as 0.405 g/mL. In addition, the Tapped density in data set [3] was 0.526 g/mL. Further, the Flowability result in data set [3] (class by compressibility index, ICH Q4B Annex 13) is listed as “Passable (21-25)”. The “Weight gain from 0 to 60% RH” value in data set [4] (0 to 60% RH) was 0.17%. The “Weight gain from 0 to 70% RH” value in data set [4] (0 to 70% RH) turned out to be 0.17%. In addition, the “Crystalline state after DVS” value in data set [4] is recorded as “remains unchanged”. The compound also had a D10 in data set [5] of 0.725 μm. Further, the D50 in data set [5] is reported as 1.89 μm. In data set [5], this compound yielded a D90 of 7.15 μm. The compound also gave an MV in data set [5] of 4.54 μm. Moreover, the “Time for which the form is stable (crystalline state doesn't change)” value (from here on “Time … (crystalline state doesn't change)”) is given as “at least 6 months” in data set [6] (25° C./60% RH), “at least 6 months” in data set [6] (40° C./75% RH) and “at least 3 months” in data set [6] (60° C./75% RH). Also, the Form after storage entry in data set [6] (setting [9]), in data set [6] (setting [10]), in data set [6] (setting [11]), in data set [6] (setting [12]), in data set [6] (setting [13]) and in data set [6] (setting [14]) was “Form CSI” each time. The Purity change in data set [6] (setting [9]) turned out to be 0.02%; in data set [6] (setting [10]) it was 0.03%; in data set [6] (setting [11]), 0.05%; in data set [6] (setting [12]), 0.01%; in data set [6] (setting [13]), 0.08%; in data set [6] (setting [14]) it was 0.07%.
Consider `O=C(O)CCCc1cc2cc(Cl)ccc2n1S(=O)(=O)c1ccc2ncsc2c1` [Form CSII, 5-Chloro-1-[(6-benzothiazolyl)sulfonyl]-1H-indole-2-butanoic acid], for which the Appearance of powder entry in data set [1] was “powdery with uniformly dispersed and has no adhesion phenomenon”. Further, the “Crystalline state after grinding” value in data set [7] is listed as “remains unchanged”. Besides, the Average adhesion amount in data set [2] is listed as 0.20 mg. In addition, the “Weight gain from 0 to 60% RH” value in data set [4] (0 to 60% RH) is 0.21%. Besides, the “Weight gain from 0 to 70% RH” value in data set [4] (0 to 70% RH) came to 0.27%. For the same compound, the “Crystalline state after DVS” value in data set [4] was “remains unchanged”. Further, the entries for the “Time … (crystalline state doesn't change)” value in data set [6] (25° C./60% RH), in data set [6] (40° C./75% RH) and in data set [6] (60° C./75% RH) were “at least 3 months”, “at least 3 months” and “at least one month”, respectively. The Form after storage result in data set [6] (setting [15]), in data set [6] (setting [16]), in data set [6] (setting [17]), in data set [6] (setting [18]) and in data set [6] (setting [19]) was “Form CSII” throughout. For the same compound, the Purity change in data set [6] (setting [15]) was 0.09%; in data set [6] (setting [16]) it was 0.06%; in data set [6] (setting [17]), 0.07%; in data set [6] (setting [18]), 0.01%; in data set [6] (setting [19]), 0.05%. In addition, the “Solid form after tableting” value in data set [8] (Pressure 5 kN), in data set [8] (Pressure 10 kN) and in data set [8] (Pressure 20 kN) was “Form CSII” in each case.
As to `O=C(O)CCCc1cc2cc(Cl)ccc2n1S(=O)(=O)c1ccc2ncsc2c1` [Form CSIV, 5-Chloro-1-[(6-benzothiazolyl)sulfonyl]-1H-indole-2-butanoic acid], the Appearance of powder entry in data set [1] is “powdery with uniformly dispersed and has no adhesion phenomenon”. For the same compound, the “Crystalline state after grinding” value in data set [7] was “remains unchanged”. The same compound yielded an Average adhesion amount in data set [2] of 0.05 mg. In data set [4] (0 to 60% RH), the “Weight gain from 0 to 60% RH” value is on record as 0.23%. Besides, in data set [4] (0 to 70% RH), the “Weight gain from 0 to 70% RH” value is 0.27%. Moreover, the “Crystalline state after DVS” value in data set [4] is on record as “remains unchanged”. Also, the “Time … (crystalline state doesn't change)” value in data set [6] (25° C./60% RH) is recorded as “at least 3 months”; in data set [6] (40° C./75% RH) it was “at least 3 months”; in data set [6] (60° C./75% RH), “at least one month”. The Form after storage entry in data set [6] (setting [15]), in data set [6] (setting [16]), in data set [6] (setting [17]), in data set [6] (setting [18]), in data set [6] (setting [19]) and in data set [6] (setting [20]) was “Form CSIV” throughout. Also, the Purity change in data set [6] (setting [15]) is 0.02%; in data set [6] (setting [16]) it was 0.04%; in data set [6] (setting [17]) it was 0.00%; in data set [6] (setting [18]), 0.03%; in data set [6] (setting [19]), 0.04%; in data set [6] (setting [20]), 0.06%. Besides, the “Solid form after tableting” value in data set [8] (Pressure 5 kN), in data set [8] (Pressure 10 kN) and in data set [8] (Pressure 20 kN) was “Form CSIV” throughout.
Regarding `O=C(O)CCCc1cc2cc(Cl)ccc2n1S(=O)(=O)c1ccc2ncsc2c1` [amorphous, 5-Chloro-1-[(6-benzothiazolyl)sulfonyl]-1H-indole-2-butanoic acid, reference compound], in data set [4] (0 to 60% RH), the “Weight gain of amorphous relative to that of Form CSI” value is on record as “about 6 times”, the “Weight gain of amorphous relative to that of Form CSII” value was “about 4 times” and the “Weight gain from 0 to 60% RH” value was 0.94%. The “Weight gain of amorphous relative to that of Form CSIV” value in data set [4] (0 to 60% RH and 0 to 70% RH) is “about 4 times”. Also, in data set [4] (0 to 70% RH), the “Weight gain of amorphous relative to that of Form CSI” value was approximately 7 times, the “Weight gain of amorphous relative to that of Form CSII” value was approximately 5 times and the “Weight gain from 0 to 70% RH” value was 1.18%. In data set [4] (0 to 60% RH, listed as prior art amorphous), the “Weight gain from 0 to 60% RH” value was found to be 0.94%. Moreover, in data set [4] (0 to 70% RH, listed as prior art amorphous), the “Weight gain from 0 to 70% RH” value was 1.18%.
